Source: patent publication US12319652B2, “Salts and solid forms of (R)-1-(5-methoxy-1H-indol-1-yl)-N,N-dimethylpropan-2-amine” (priority 2021, dated 2025)
Like-named read-outs stand apart in the source and are kept apart here.

Assays:
[1] = Solubility determinations in SIF buffers (FaSSIF, FeSSIF, FaSSGF); type: physicochemical; details: for Solubility in SIF buffers: FaSSIF, FeSSIF and FaSSGF, 37° C., 24 h, concentration tested 30 mg/ml
Procedure, shortened: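 Salt forms suspended at 30 mg/ml in FaSSIF, FeSSIF or FaSSGF at 37° C. for 24 h, pH kept in range with 1 M HCl or NaOH. Supernatants sampled at 1, 3, 6 and 24 h, centrifuged and quantified by HPLC as compound 1 free base against amorphous compound 1 calibrants; pellets checked by XRPD for form change.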

[2] = Amorphous forms and thermal study (glass temperature Tg by DSC/TGA); type: physicochemical; details: for Glass temperatures (Tg): amorphous form
[3] = type: physicochemical; details: for Change of purity profile / CP: 10-day time point
[4] = type: physicochemical
Procedure: Both samples were maintained at 75% RH at 40° C. and monitored by HPLC at time points t=1 h, 3 h, 24 h, 48 h, 7 d, 2 w, 3 w, 4 w and 5 w.
Under the conditions evaluated during this study, XRPD analysis could not be performed as compound 1 Fumarate turned to an oily residue within 3 h under both conditions.
[…] Both samples were maintained under equilibrium humidity of 75% RH at 40° C. and monitored, initially at hourly and then weekly time points.

[5] = Dynamic vapor sorption (DVS); type: physicochemical; details: for DVS isotherm type / hygroscopicity: 0 to 90 to 0% RH; for DVS weight gain at 70% RH: 70% RH (printed 70° RH in Example 8); for DVS desorption behaviour (hysteresis): during desorption
Procedure, shortened: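 At 25 °C, 20 to 50 mg sample was dried at 0% RH for 60 minutes, then humidity raised 0-30% in 5% steps and 30-90% in 10% steps, with matching desorption back to 0%. Equilibrium set at dm/dt 0.002%/min; amorphous material was run with fixed 1 hour steps.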

[6] = Amorphisation activity: Antisolvent/N2 flow, 50 mg
[7] = Amorphisation activity: Freeze dry, 50 mg
[8] = Amorphisation activity: HFIPA Evaporation o/n, 50 mg
[9] = Amorphisation activity: HFIPA Evaporation, 50 mg

## COc1ccc2c(ccn2C[C@@H](C)[NH+](C)C)c1.O=C(O)/C=C/C(=O)O [Compound 1 fumarate, (R)-1-(5-methoxy-1H-indol-1-yl)-N,N-dimethylpropan-2-amine fumarate]
[1]
  Solubility in SIF buffers: freely soluble
[2]; [6]
  Form by XRPD: Amorphous
  Outcome: Gum
[2]; [7]
  Form by XRPD: Form A
  Outcome: Crystalline
[2]; Amorphisation activity: Rotary Vac (Methanol), 50 mg
  Outcome: Gum
[2]; Hot plate heat-up, 20 to 165 ° C.
  Outcome: Amorphous
[2]; Hot stage plate heat-up, 20 to 165 ° C.
  Outcome: Amorphous
[2]; Open Pan DSC, 20 to 145 to −20, O/N 20 to 230 ° C.
  Outcome: Amorphous
[2]; Sealed DSC, 20 to 145 to −20 to 230 ° C.
  Outcome: Amorphous
[2]; TGA, 20 to 145 to −20 to 230 ° C.
  Outcome: Amorphous
[2]
  Glass temperatures (Tg): 24 °C
[3]; 40° C./75% RH
  Change of purity profile / CP: reduction in CP
[3]; salt before storage (t = 0)
  HPLC peak RRT 0.93: 0.36
  HPLC peak RRT 1.00 (reference peak): 98.38
  HPLC peak RRT 1.11: 0.79
  HPLC peak RRT 1.15: 0.27
  HPLC peak RRT 1.17: 0.13
  HPLC peak RRT 1.19: 0.08
[3]; t = 5 d at 75% RH at 40° C.
  HPLC peak RRT 0.93: 0.64
  HPLC peak RRT 0.98: 0.05
  HPLC peak RRT 1.00 (reference peak): 96.82
  HPLC peak RRT 1.08: 0.05
  HPLC peak RRT 1.11: 1.06
  HPLC peak RRT 1.15: 0.60
  HPLC peak RRT 1.17: 0.02
  HPLC peak RRT 1.18: 0.27
  HPLC peak RRT 1.20: 0.20
  HPLC peak RRT 1.27: 0.05
  HPLC peak RRT 1.28: 0.03
  HPLC peak RRT 1.39: 0.10
  HPLC peak RRT 1.43: 0.06
  HPLC peak RRT 1.47: 0.06
[3]; t = 10 d at 75% RH at 40° C.
  HPLC peak RRT 0.93: 0.61
  HPLC peak RRT 0.98: 0.07
  HPLC peak RRT 1.00 (reference peak): 97.08
  HPLC peak RRT 1.08: 0.04
  HPLC peak RRT 1.11: 0.96
  HPLC peak RRT 1.13: 0.05
  HPLC peak RRT 1.15: 0.52
  HPLC peak RRT 1.18: 0.09
  HPLC peak RRT 1.19: 0.12
  HPLC peak RRT 1.20: 0.15
  HPLC peak RRT 1.27: 0.03
  HPLC peak RRT 1.28: 0.05
  HPLC peak RRT 1.34: 0.04
  HPLC peak RRT 1.39: 0.08
  HPLC peak RRT 1.43: 0.04
  HPLC peak RRT 1.45: 0.03
  HPLC peak RRT 1.47: 0.05
[4]; 75% RH/40° C., 5 week time point
  Decrease of chemical purity: approximately 2 % area
[4]; 75% RH/40° C., 5 weeks
  Stability of the amorphous phase: good stability
[4]; 75% RH/40° C., both conditions (open vial and double bagged)
  Time to turn to an oily residue: ≤ 3 h
[4]; several weeks at 40° C./75% RH
  Preliminary stability evaluation (hydrate formation or degradation): no evidence for hydrate formation or degradation
[5]
  RH above which pronounced mono, multilayer sorption and probable deliquescence occurred: > 80 % RH
  DVS weight gain at 70% RH: ca. 1 % w/w
[5]; listed as Compound 1·Fumarate, fumarate
  DVS isotherm type / hygroscopicity: deliquescent type isotherm
[5]; listed as compound 1·Fumarate, fumarate
  DVS isotherm type / hygroscopicity: deliquescent

## COc1ccc2c(ccn2C[C@@H](C)N(C)C)c1.Cl [Compound 1 HCl]
[1]
  Disproportionation in SIF buffers: disproportionation not observed
[1]; listed as HC
  Solubility in SIF buffers: freely soluble
[1]; listed as compound 1·HCl
  Solubility in SIF buffers: Freely soluble
[2]; [6]
  Form by XRPD: Form A
  Outcome: Crystalline
[2]; [7]
  Form by XRPD: Form A
  Outcome: Crystalline
[2]; [8]
  Form by XRPD: Form A
  Outcome: Crystalline
[2]; [9]
  Form by XRPD: Form A
  Outcome: Crystalline
[2]; Hot plate heat-up, 20 to 236 ° C.
  Outcome: Form A
[2]; Hot stage plate heat-up, 20 to 260 ° C.
  Outcome: Amorphous
[2]; Hot stage plate heat-up, 20 to 275 ° C.
  Outcome: Amorphous
[2]; Open Pan DSC, 20 to 220 to −20, O/N 20 to 250 ° C.
  Outcome: Amorphous
[2]; Sealed DSC, 20 to 220 to −20 to 250 ° C.
  Outcome: Amorphous
[2]; TGA, 20 to 220 to −20 to 250 ° C.
  Outcome: Amorphous
[2]
  Glass temperatures (Tg): 37 °C
[3]; 40° C./75% RH
  Change of purity profile / CP: no reduction in CP
[3]; 40° C./75% RH, listed as compound 1·HCl
  Change of purity profile / CP: little changed
[3]; 40° C./75% RH, over 10 days
  CP: 99.60 % area
[3]; 10 days, listed as compound 1·HCl
  Stability at 40° C./75% RH: Chemically and physically stable
[5]
  DVS isotherm type / hygroscopicity: slightly hygroscopic isotherm
  DVS weight gain at 70% RH: ca. 0.2 % w/w
  DVS desorption behaviour (hysteresis): small water affinity hysteresis
[5]; listed as Compound 1·HCl
  DVS isotherm type / hygroscopicity: slightly hygroscopic isotherm
  DVS desorption behaviour (hysteresis): small water affinity hysteresis
[5]; listed as compound 1·HCl
  DVS isotherm type / hygroscopicity: slightly hygroscopic
[5]; >80% RH
  DVS mono and multilayer sorption >80% RH: ca. 0.5 % w.w
